{
  "source": "patent EP2067861A1",
  "about": "“Animals of the rattus genus wherein msh6 expression is functionally decreased and methods for the generation of specific mutants therefrom” (Koninklijke Nederlandse Akademie van Wetenschappen, priority 2007, dated 2009)",
  "system": "msh6^-/- males",
  "assay": "ENU dose-response experiment: fertility of treated founder males",
  "type": "in vivo, rat",
  "description": "All experiments were approved by the Animal Care Committee of the Royal Dutch Academy of Science according to the Dutch legal ethical guidelines. Experiments were designed to minimize the number of required animals and their suffering. Male MSH6 knockout rats (Msh6^1Hubr) of 12 weeks of age were given three weekly intraperitoneal injections of 25, 30 and 35 mg/kg bodyweight ENU. Preparation of ENU (Isopac; Sigma) was done as decribed (for detailed description, see (Smits et al. (2006) Pharmacogenet Genomics 16, 159-69) After the treatment the injected males were monitored for fertility by breeding with one or two females. Pups from these early matings were counted, but not analyzed. Ten weeks after the last injection, fertile males of the highest-dosed fertile group were kept on a weekly breeding scheme with two females to produce F1 progeny for mutational analysis. Animals were housed under standard conditions in groups of two to three per cage per gender under controlled experimental conditions (12-h light/dark cycle, 21±1°C, 60% relative humidity, food and water ad libitum).\nThe efficiency of ENU is dependent of the dose, reflected by a higher mutagenicity after three weekly administrations of low doses of the mutagen compared to a single high-dose injection (Justice et al. (2000) Mamm Genome 11, 484-8). Furthermore it has been shown that higher ENU concentrations increase the mutation frequency (Smits et al. ([…]) Pharmacogenet Genomics 16, 159-69; Smits and Cuppen (2006) Trends Genet. 22, 232-40). To determine the optimal ENU concentration we performed an ENU dose-response experiment and determined the fertility of the founders. At 12 weeks of age msh6^-/- males were treated with 3 weekly doses of different concentrations of the mutagen. Fertility was determined after a full cycle of spermatogenesis (± 10 weeks) by breeding and/or histological analysis of the testes. At concentrations of 35, 30 and 25 mg/kg, respectively 1/8, 5/8 and 4/6 males were fertile (Table 5). Compared to earlier studies, where at 40 and 35 mg/kg ENU respectively 6/10 and 10/10 rats are fertile (Smits and Cuppen (2006) Trends Genet. 22, 232-40), this is a considerable decrease. It is known that MSH6 deficiency reduces lifespan in both rats (van Boxtel et al. (2007) submitted) and mice (Edelmann (1997) Cell 91, 467-77) as a result of tumor development. MSH6 deficiency increased ENU sensitivity not only in fertility, but also in survival. Whereas untreated msh6^-/- rats show a median survival of 14 months, this is reduced in the ENU treated males to an average mean of 37 ± 3 weeks (∼ 8 months) and no male was alive after 50 weeks of age (Figure 5). This decrease in lifespan was due to the development of tumors, mainly lymphomas (data not shown). […]",
  "note": "“And” between values parts separate entries of the source, which are not always exact repeats. Equal entries are not always repeated.",
  "data": [
    {"compound": "CCN(N=O)C(N)=O", "note": "[ENU, N-ethyl-N-nitrosourea]", "values": [
      {"measurement": "# Fertile males", "setting": "MSH6^-/- 3 x 25 mg of ENU per kg bodyweight (three weekly injections), 6 males injected, testes histology and/or at least one litter 10 weeks after last injection", "result": "4/6 and 4"},
      {"measurement": "# Fertile males", "setting": "MSH6^-/- 3 x 30 mg of ENU per kg bodyweight (three weekly injections), 8 males injected", "result": "5/8 and 5"},
      {"measurement": "# Fertile males", "setting": "MSH6^-/- 3 x 35 mg of ENU per kg bodyweight (three weekly injections), 8 males injected", "result": "1/8 and 1"},
      {"measurement": "# Fertile males", "setting": "MSH6^-/- Total of the three dose groups, 24 males injected as printed", "result": 10}
    ]}
  ]
}
